# Data published in patent US8394376B2, “Therapeutic agents for alzheimer's disease and cancer” (The University of Tokyo, priority 2006, dated 2013).
# Tests used:
# A549 cells = experiment: Cell viability by the MTT method; assay type: cell-based, human; conditions: final concentration 100 μM, 72 hours, vs untreated, FIG. 12
# Description: HeLa cells or A549 cells (5×10^3 cells) were inoculated onto a 96-well multiplate and treated with DAPT (final concentration: 100 μM) for 72 hours. After the 72-hour treatment, MTT diluted with PBS was added to the plate so that the final MTT concentration was 500 μg/mL, followed by culturing at 37° C. for three to four hours. Thereafter, stop solution (10% SDS, 0.01 M HCl) was added to the plate for termination of reaction, and the plate was allowed to stand still at 37° C. overnight, followed by dissolution of produced formazan. The formazan solution was uniformly mixed through pipetting, and absorbance was measured at 550 nm, to thereby calculate cell viability. […] Subsequently, in order to confirm that this reduction in cell viability was attributed to inhibition of γ-secretase activity, endogenous nicastrin of A549 cells was knocked down through treatment with nicastrin-corresponding short interference RNA (siRNA), and change in cell viability was determined. […]
# Subsequently, the effect of the above-prepared antibodies on survival of A549 cells was examined. Each of the antibodies was added to A549 cells so that the final antibody concentration was 10 μg/mL, and, 96 hours after addition of the antibody, cell viability was determined through the MTT method.
# HEK/NΔEGV cells = experiment: GAL4-UAS luciferase reporter assay in living cells; assay type: cell-based; conditions: final concentration 10 μM
# Text: GAL4/VP16 was bound to NΔE (including N99), in which deletion occurs in the extracellular domain of Notch receptor and which serves as a direct substrate for γ-secretase in a ligand-independent manner, to thereby prepare a construct (NΔEGV, Taniguchi Y., Karlstrom K., Lundkvist J., Mizutani T., Otaka A., Vestling M., Bernstein A., Donoviel D., Lendahl U., Honjo T.: Notch receptor cleavage depends on but is not directly executed by presenilins. Proc. Natl. Acad. Sci. U.S.A 2002, 99: 4014). The construct (NΔEGV) was subcloned into pcDNA3.1 vector (pcDNA3.1-NΔEGV). […]
# (§1) HEK/SC100G cells or HEK/NΔEGV cells were inoculated into a 48-well multiplate (2.5×10^4 cells). […] After culturing for 12 hours, cells and a culture supernatant were recovered, and the amount of Aβ was determined through a reporter assay or ELISA.
# (§2) The recovered cells were lysed in a lysis buffer (Promega), and the resultant lysate was subjected to the reporter assay. […] The amount of luciferase luminescence was normalized by the concentration of protein (in the case of HEK/SC100G cells), or by the amount of eGFP luminescence (in the case of HEK/NΔEGV cells), to thereby yield relative light unit (RLU). […]
# HeLa cells = experiment: Cell viability by the MTT method; assay type: cell-based, human; conditions: final concentration 100 μM, 72 hours, vs untreated, FIG. 12
# Description: HeLa cells or A549 cells (5×10^3 cells) were inoculated onto a 96-well multiplate and treated with DAPT (final concentration: 100 μM) for 72 hours. After the 72-hour treatment, MTT diluted with PBS was added to the plate so that the final MTT concentration was 500 μg/mL, followed by culturing at 37° C. for three to four hours. Thereafter, stop solution (10% SDS, 0.01 M HCl) was added to the plate for termination of reaction, and the plate was allowed to stand still at 37° C. overnight, followed by dissolution of produced formazan. The formazan solution was uniformly mixed through pipetting, and absorbance was measured at 550 nm, to thereby calculate cell viability. […] Subsequently, in order to confirm that this reduction in cell viability was attributed to inhibition of γ-secretase activity, endogenous nicastrin of A549 cells was knocked down through treatment with nicastrin-corresponding short interference RNA (siRNA), and change in cell viability was determined. As a result, in the case of treatment with nicastrin siRNA, cell viability was reduced by about 20%, as compared with the case of treatment with siRNA having a random sequence (scramble) (FIG. 13).
# HEK/SC100G cells = experiment: GAL4-UAS luciferase reporter assay in living cells; assay type: cell-based; conditions: final concentration 10 μM
# Text: A preproenkephalin-derived signal peptide was inserted into C99, and GAL4 (i.e., a yeast-derived transcription factor) was inserted immediately downstream of the transmembrance domain of C99, to thereby prepare a construct (SC100G). The construct (SC100G) was subcloned into pcDNA3.1/Hygro vector (Invitroger).
# A UAS sequence was inserted upstream of luciferase in pGL3(R2.2) vector (Promega), to thereby prepare a construct (UAS-luc), and the construct was employed as a reporter construct. eGFP was subcloned into pcDNA3 (Invitrogen), and the thus-prepared pcDNA3-eGFP was employed as a control vector for monitoring the number of cells. […]
# as §1, §2
smiles,measurement,setting,value
C[C@H](NC(=O)Cc1cc(F)cc(F)c1)C(=O)N[C@H](C(=O)OC(C)(C)C)c1ccccc1 [DAPT],cell viability,A549 cells,significantly lower
same,reporter activity,HEK/NΔEGV cells,inhibit reporter activity
same,cell viability,HeLa cells,no significant difference
same,reporter activity,HEK/SC100G cells,inhibit reporter activity
